For one assay, the system named is U2OS cells. The experiment in a line: Apo Tox-Glo viability assay, U2OS cells. The assay is classed as cell-based, human. To be noted: 5 μM, 3 days. The method, then: HeLa, U2OS, and MRI90 cells were cultured in the presence of ADAR1 inhibitors, 5 μM or 20 μM, for 3 days. Their viability was examined using the Apo Tox-Glo assay system (Promega), which measures plasma membrane penetration of glycyl-phenyl-alanyl-aminofluorocoumarin peptide. Control, 0.3% DMSO. […] Data are mean±S.D. (n=3, biological replicates).
FIGS. 29A-29D Characterization of Compound #13 effects in cancer cells. […] Viability was examined using the Apo Tox-Glo assay system (Promega). Control, 0.3% DMSO. (FIG. 29B) Western blotting analysis of HeLa cells treated with Compound #13 (10 μM). […] (FIG. 29D) Activation of the IFN signaling pathway. HSC-4 squamous carcinoma cells were treated with Compound #13 at 10 μM (12 hrs). RNA samples were analyzed by qRT-PCR to monitor expression levels of ISGs.

For another assay, the target named is T1, ADAR1p110-E912A (Homo sapiens, UniProt P55265, E912A).
T1 sequence (P55265 1-931 isoform P55265-5 E617A): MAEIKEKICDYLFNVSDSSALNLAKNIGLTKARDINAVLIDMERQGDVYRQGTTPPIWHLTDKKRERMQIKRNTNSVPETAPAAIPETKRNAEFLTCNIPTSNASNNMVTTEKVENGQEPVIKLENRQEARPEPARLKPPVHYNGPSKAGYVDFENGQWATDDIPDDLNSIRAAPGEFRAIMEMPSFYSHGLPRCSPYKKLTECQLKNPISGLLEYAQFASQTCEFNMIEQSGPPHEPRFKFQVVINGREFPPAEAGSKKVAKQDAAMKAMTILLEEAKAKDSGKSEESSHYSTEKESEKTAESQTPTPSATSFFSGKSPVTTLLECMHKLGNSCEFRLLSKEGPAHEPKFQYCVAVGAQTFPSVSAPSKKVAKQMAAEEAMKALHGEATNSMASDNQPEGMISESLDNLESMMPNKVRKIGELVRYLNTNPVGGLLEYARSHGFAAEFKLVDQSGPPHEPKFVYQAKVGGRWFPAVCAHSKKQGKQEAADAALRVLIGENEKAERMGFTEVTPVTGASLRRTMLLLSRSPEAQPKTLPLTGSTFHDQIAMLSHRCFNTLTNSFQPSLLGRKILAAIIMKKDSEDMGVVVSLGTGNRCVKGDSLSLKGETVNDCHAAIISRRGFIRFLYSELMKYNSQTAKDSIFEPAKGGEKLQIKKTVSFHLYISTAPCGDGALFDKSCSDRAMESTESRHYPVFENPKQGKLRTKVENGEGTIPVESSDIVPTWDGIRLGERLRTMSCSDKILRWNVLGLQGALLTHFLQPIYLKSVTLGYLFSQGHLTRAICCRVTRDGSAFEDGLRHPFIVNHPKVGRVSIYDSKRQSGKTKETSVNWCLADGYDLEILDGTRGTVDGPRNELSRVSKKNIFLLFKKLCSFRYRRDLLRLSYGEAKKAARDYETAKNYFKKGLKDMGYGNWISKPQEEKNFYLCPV
The experiment in a line: surface plasmon resonance (Biacore T200), ADAR1p110-E912A. The format is binding. To be noted: SPR. An excerpt:
We synthesized 2 additional analogs of Compound #13 for preliminary structure activity relationships (SAR), namely, #13-Analog 1 and #13-Analog 2 (Table 3). Compound #13-Analog 1 lacks the 4-cyano moiety and #13-Analog 2 shifts the cyano to the 2-position of the phenyl ring. […] We hypothesized that the cyano-phenyl moiety will coordinate with the zinc atom in the active site when bound to ADAR1. We evaluated the ability of Compound #13 to bind to ADAR1 using surface plasmon resonance (SPR) on the Biacore T200. […] We modeled Compound #13 into the ADAR2 active site (56).

SMILES strings stand for the structures. “Also recorded” adds a separate entry of the source.

Take `N#Cc1ccc(NC(=O)c2sc3ccccc3c2Cl)cc1` [Compound #13, 3-chloro-N-(4-cyanophenyl)-1-benzothiophene-2-carboxamide]: in the assay on U2OS cells, the “viability of U2OS (ALT) cells” value is on record as “very little effects”. Moreover, at ADAR1p110-E912A, the “binding to mutant ADAR1p110-E912A” value is “did not bind; also recorded: not to mutant E912A”.

These data come from patent publication US20250066864A1, “METHODS FOR IDENTIFYING ADAR1 INHIBITORS, AND COMPOSITIONS AND METHODS OF USE IN TREATING CANCER” (The Wistar Institute of Anatomy and Biology, priority 2021, published 2025).
